Patent publication US20260314598A1, “THE USE OF FLORPYRAUXIFEN-BENZYL AS A SOYBEAN HARVEST AID” (CORTEVA AGRISCIENCE LLC, priority 2022, published 2026)

System: soybean plants
Assay: Field trial of soybean pre-harvest desiccation: visual defoliation after a single spray
Format: in vivo
Conditions: for Percentage of defoliation (raw data): single application at R7.2, 100 L/ha spray; for Percentage of defoliation (Abbot's formula): single application at R7.2, adjusted to untreated
Description: Field trials were carried out to test the soybean desiccation efficacy of florpyrauxifen-benzyl at 5, 7.5, 10, 15 and 20 g a.i./ha. Soybean plants were sprayed at the R7.2 soybean growth stage.
[…] Herbicides were diluted in water and a single application for each rate (backpack sprayer) was performed employing 100 L/ha of spray solution. The percentage of visual defoliation was assessed at 3, 7 and 10 days after spray application. The significance of treatment effects was evaluated with F-approximate test (α=0.05) and least square means from different treatments were compared with Tukey's test, after adjusting the % defoliation using Abbott's formula (Abbott, W. S., 1925. A method of computing the effectiveness of an insecticide. J. Econ. Entomol. 18:265-267).

[1] = 3 DAA, 370 g ai/ha, untreated 74.4
[2] = 10 DAA, 370 g ai/ha, untreated 89.8

COc1c(Cl)ccc(-c2nc(C(=O)OCc3ccccc3)c(Cl)c(N)c2F)c1F [Florpyrauxifen-benzyl, florpyrauxifen-benzyl]
Percentage of defoliation (raw data) (3 DAA, 5 g ai/ha, untreated 74.4): 78.8%
Percentage of defoliation (Abbot's formula) (3 DAA, 5 g ai/ha): 7.4%
Percentage of defoliation (raw data) (3 DAA, 7.5 g ai/ha, untreated 74.4): 80.8%
Percentage of defoliation (Abbot's formula) (3 DAA, 7.5 g ai/ha): 10.0%
Percentage of defoliation (raw data) (3 DAA, 10 g ai/ha, untreated 74.4): 81.3%
Percentage of defoliation (Abbot's formula) (3 DAA, 10 g ai/ha): 10.7%
Percentage of defoliation (raw data) (3 DAA, 15 g ai/ha, untreated 74.4): 82.4%
Percentage of defoliation (Abbot's formula) (3 DAA, 15 g ai/ha): 12.3%
Percentage of defoliation (raw data) (3 DAA, 20 g ai/ha, untreated 74.4): 84.3%
Percentage of defoliation (Abbot's formula) (3 DAA, 20 g ai/ha): 15.3%
Percentage of defoliation (raw data) (7 DAA, 5 g ai/ha): 89.3%
Percentage of defoliation (Abbot's formula) (7 DAA, 5 g ai/ha): 7.8%
Percentage of defoliation (raw data) (7 DAA, 7.5 g ai/ha): 90.8%
Percentage of defoliation (Abbot's formula) (7 DAA, 7.5 g ai/ha): 9.6%
Percentage of defoliation (raw data) (7 DAA, 10 g ai/ha): 91.4%
Percentage of defoliation (Abbot's formula) (7 DAA, 10 g ai/ha): 10.4%
Percentage of defoliation (raw data) (7 DAA, 15 g ai/ha): 93.0%
Percentage of defoliation (Abbot's formula) (7 DAA, 15 g ai/ha): 12.7%
Percentage of defoliation (raw data) (7 DAA, 20 g ai/ha): 94.5%
Percentage of defoliation (Abbot's formula) (7 DAA, 20 g ai/ha): 14.7%
percentage of defoliation compared to untreated plants, versus standards (7 DAA, rate not restated (15 and 20 g ai/ha in preceding sentence), Tukey's test): statistically equivalent to both ammonium-glufosinate and diquat
Percentage of defoliation (raw data) (10 DAA, 5 g ai/ha, untreated 89.8): 97.1%
Percentage of defoliation (Abbot's formula) (10 DAA, 5 g ai/ha): 9.5%
Percentage of defoliation (raw data) (10 DAA, 7.5 g ai/ha, untreated 89.8): 97.9%
Percentage of defoliation (Abbot's formula) (10 DAA, 7.5 g ai/ha): 10.4%
Percentage of defoliation (raw data) (10 DAA, 10 g ai/ha, untreated 89.8): 97.9%
Percentage of defoliation (Abbot's formula) (10 DAA, 10 g ai/ha): 10.5%
Percentage of defoliation (raw data) (10 DAA, 15 g ai/ha, untreated 89.8): 98.6%
Percentage of defoliation (Abbot's formula) (10 DAA, 15 g ai/ha): 11.3%
Percentage of defoliation (raw data) (10 DAA, 20 g ai/ha, untreated 89.8): 99.1%
Percentage of defoliation (Abbot's formula) (10 DAA, 20 g ai/ha): 11.9%
percentage of defoliation compared to untreated plants, versus standard (15 and 20 g ai/ha, 3 DAA, F-approximate test (α=0.05), Tukey's test): statistically equivalent to ammonium-glufosinate

c1cc[n+]2c(c1)-c1cccc[n+]1CC2 [Diquat, diquat]
Percentage of defoliation (raw data) [1]: 95.7%
Percentage of defoliation (Abbot's formula) (3 DAA, 370 g ai/ha): 31.7%
Percentage of defoliation (raw data) (7 DAA, 370 g ai/ha): 98.9%
Percentage of defoliation (Abbot's formula) (7 DAA, 370 g ai/ha): 20.5%
Percentage of defoliation (raw data) [2]: 99.8%
Percentage of defoliation (Abbot's formula) (10 DAA, 370 g ai/ha): 12.9%

CP(=O)(O)CCC(N)C(=O)O (centres unmarked) [Ammonium glufosinate, ammonium-glufosinate]
Percentage of defoliation (raw data) [1]: 84.9%
Percentage of defoliation (Abbot's formula) (3 DAA, 370 g ai/ha): 16.4%
Percentage of defoliation (raw data) (7 DAA, 370 g ai/ha): 93.9%
Percentage of defoliation (Abbot's formula) (7 DAA, 370 g ai/ha): 13.9%
Percentage of defoliation (raw data) [2]: 98.1%
Percentage of defoliation (Abbot's formula) (10 DAA, 370 g ai/ha): 10.8%
